The structures appear in SMILES notation.

Results on 22 molecules are retold here after patent publication US12060347B2 (BRISTOL-MYERS SQUIBB COMPANY, priority 2016, dated 2024).

The test deals with T1, human PAR4 (Homo sapiens, UniProt Q96RI0).
T1 construct: expressed in transfected cells; host or cells: HEK293 PAR4 Clone 1.2A (BMS Arctic ID 383940)
T1 sequence (Q96RI0 18-385): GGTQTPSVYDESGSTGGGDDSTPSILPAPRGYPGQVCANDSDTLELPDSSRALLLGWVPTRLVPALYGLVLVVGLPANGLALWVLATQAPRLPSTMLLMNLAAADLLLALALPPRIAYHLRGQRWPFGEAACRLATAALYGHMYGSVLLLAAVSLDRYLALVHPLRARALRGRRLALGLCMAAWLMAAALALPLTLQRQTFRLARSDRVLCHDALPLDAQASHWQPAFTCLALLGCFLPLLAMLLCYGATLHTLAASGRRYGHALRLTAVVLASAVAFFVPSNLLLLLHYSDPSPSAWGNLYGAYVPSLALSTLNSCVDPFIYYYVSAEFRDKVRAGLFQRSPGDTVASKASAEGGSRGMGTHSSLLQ
Briefly: PAR4 FLIPR assay: antagonism of agonist-peptide-induced calcium mobilization in PAR4-expressing HEK293 cells. Type of test: cell-based. Particulars: H-Ala-Phe(4-F)-[…]NH2-induced intracellular calcium mobilization, 11-point curves. (In general: Calcium flux is commonly read through the fluorescence of an indicator in the cells.)

As usually defined, the IC50 is the midpoint of a concentration-inhibition curve. For the molecule `COc1cnc2c(-c3nc4cc(F)c(OC[C@@H](C)OC(=O)Nc5ccnnc5)nc4s3)cc(C)cc2n1` [Example 698, (R)-1-((6-fluoro-2-(2-methoxy-7-methylquinoxalin-5-yl)thiazolo[5,4-b]pyridin-5-yl)oxy) propan-2-yl pyridazin-4-ylcarbamate], the half-maximal inhibitory concentration (IC50) came out at 17 nM. To `CCOc1cnc2c(-c3nc4cc(F)c(OC[C@@H](C)OC(=O)Nc5cnc(OC[C@@H](C)O)nc5)nc4s3)cc(C)cc2n1` [Example 815, (R)-1-((2-(2-ethoxy-7-methylquinoxalin-5-yl)-6-fluorothiazolo[5,4-b]pyridin-5-yl)oxy) propan-2-yl (2-((R)-2-hydroxypropoxy)pyrimidin-5-yl)carbamate] belongs 6.4 nM; to `COc1cc(C(O)C2(C)CCCCC2)c2nc(-c3cc(C)cc4nc(OC)cnc34)sc2c1` (stereo not shown) [Example 672, (6-methoxy-2-(2-methoxy-7-methylquinoxalin-5-yl)benzo[d]thiazol-4-yl)(1-methylcyclohexyl)methanol], 1.9 nM; to `COc1cnc2c(-c3nc4cc(F)c(O[C@@H](C)[C@@H](C)OC(=O)Nc5ccc(C#N)nc5)cc4s3)cc(C#N)cc2n1` [Example 828, (2R,3S)-3-((2-(7-cyano-2-methoxyquinoxalin-5-yl)-5-fluorobenzo[d]thiazol-6-yl)oxy)butan-2-yl (6-cyanopyridin-3-yl)carbamate], 0.7 nM. Next, `COC(=O)NCCOc1ccc(C)c2nc(-c3cc(C)cc4nc(OC(F)F)cnc34)sc12` [Example 70, Methyl 2-(2-(2-(difluoromethoxy)-7-methylquinoxalin-5-yl)-4-methylbenzo[d]thiazol-7-yloxy)ethylcarbamate]: 34 nM; `COC(=O)c1cnc2c(-c3nc4c(C)cc(OCCNS(=O)(=O)c5ccc(F)cc5)cc4s3)cc(C)cc2n1` [Example 32, methyl 5-(6-(2-(4-fluorophenylsulfonamido)ethoxy)-4-methylbenzo[d]thiazol-2-yl)-7-methylquinoxaline-2-carboxylate]: 3 nM; `COCc1cnc2c(-c3nc4c(Cl)c(F)c(OCCOC(=O)Nc5ccc(F)nc5)cc4s3)cc(C)cc2n1` [Example 305, 2-((4-chloro-5-fluoro-2-(2-(methoxymethyl)-7-methylquinoxalin-5-yl)benzo[d]thiazol-6-yl)oxy)ethyl (6-fluoropyridin-3-yl)carbamate]: 1 nM.

Take `COc1cnc2c(-c3nc4c(Cl)cncc4s3)cc(C)cc2n1` [Example 151, 7-chloro-2-(2-methoxy-7-methylquinoxalin-5-yl)thiazolo[5,4-c]pyridine]: the IC50 was determined as 2000 nM.

For the molecule `COc1cnc2c(-c3nc4cc(F)c(O[C@@H](C)[C@@H](C)OC(=O)Nc5ccc(C(=O)N6CCC[C@H](O)C6)nc5)cc4s3)cc(C)cc2n1` [Example 481, (2R,3S)-3-((5-fluoro-2-(2-methoxy-7-methylquinoxalin-5-yl)benzo[d]thiazol-6-yl)oxy)butan-2-yl (6-((S)-3-hydroxypiperidine-1-carbonyl)pyridin-3-yl)carbamate], the 50% inhibitory concentration (IC50) amounted to 0.6 nM. Next, `COc1cnc2c(-c3nc4cc(F)c(OC[C@@H](C)OC(=O)Nc5ccc(C(=O)N6CC[C@H](CO)C6)nc5)cc4s3)cc(C)cc2n1` [Example 479, (R)-1-((5-fluoro-2-(2-methoxy-7-methylquinoxalin-5-yl)benzo[d]thiazol-6-yl)oxy)propan-2-yl (6-((S)-3-(hydroxymethyl)pyrrolidine-1-carbonyl)pyridin-3-yl)carbamate]: 1.4 nM. To `CCOc1cc(C(O)C(C)(C)C)c2nc(-c3cc(C)cc4nc(OC)cnc34)sc2c1` (stereo not shown) [Example 640, 1-(6-ethoxy-2-(2-methoxy-7-methylquinoxalin-5-yl)benzo[d]thiazol-4-yl)-2,2-dimethylpropan-1-ol] belongs 8 nM. To `COc1cnc2c(-c3nc4cc(F)c(OC[C@@H](C)OC(=O)Nc5ccc(CCO)nc5)cc4s3)cc(C)cc2n1` [Example 543, (R)-1-((5-fluoro-2-(2-methoxy-7-methylquinoxalin-5-yl)benzo[d]thiazol-6-yl)oxy)propan-2-yl (6-(2-hydroxyethyl)pyridin-3-yl)carbamate] belongs 1.3 nM; to `COc1cnc2c(-c3nc4cc(F)c(OC[C@@H](C)OC(=O)Nc5cnc(CO)nc5)nc4s3)cc(C)cc2n1` [Example 768, (R)-1-((6-fluoro-2-(2-methoxy-7-methylquinoxalin-5-yl)thiazolo[5,4-b]pyridin-5-yl)oxy)propan-2-yl (2-(hydroxymethyl)pyrimidin-5-yl)carbamate], 10 nM. Turning to `COc1cnc2c(-c3nc4cc(F)c(OC[C@@H](C)OC(=O)Nc5cnc(OCCO)nc5)cc4s3)cc(C)cc2n1` [Example 555, (R)-1-((5-fluoro-2-(2-methoxy-7-methylquinoxalin-5-yl)benzo[d]thiazol-6-yl)oxy)propan-2-yl (2-(2-hydroxyethoxy)pyrimidin-5-yl)carbamate], the concentration for half-maximal inhibition (IC50) came out at 1.1 nM.

Consider `COCc1cnc2c(-c3nc4c(C)cc(OC)cc4s3)cc(C)cc2c1OC` [Example 190, 6-methoxy-2-(4-methoxy-3-(methoxymethyl)-6-methylquinolin-8-yl)-4-methylbenzo[d]thiazole], for which the half-inhibitory concentration (IC50) was found to be 1700 nM. Next, `Cc1cc(-c2nc3cccc(OCCOCc4ccccc4)c3s2)c2ncc(OC(F)F)nc2c1` [Example 18, 7-(2-(benzyloxy)ethoxy)-2-(2-(difluoromethoxy)-7-methylquinoxalin-5-yl) benzo[d]thiazole]: 98 nM; `COc1cc(C)c2nc(-c3cc(C)cc4nc(COc5ccccc5)cnc34)sc2c1` [Example 187, 6-methoxy-4-methyl-2-(7-methyl-2-(phenoxymethyl)quinoxalin-5-yl)benzo[d]thiazole]: 390 nM; `COc1cnc2c(-c3nc4cc(F)c(OC[C@@H](C)OC(=O)Nc5cnc(OC[C@@H](C)O)nc5)nc4s3)cc(C)cc2n1` [Example 688, (R)-1-((6-fluoro-2-(2-methoxy-7-methylquinoxalin-5-yl)thiazolo[5,4-b]pyridin-5-yl)oxy) propan-2-yl (2-((R)-2-hydroxypropoxy)pyrimidin-5-yl)carbamate]: 4.5 nM.

For `COc1cc(C(O)c2cccc(C(F)(F)F)c2)c2nc(-c3cc(C)cc4nc(OC)cnc34)sc2c1` (stereo not shown) [Example 642, (6-methoxy-2-(2-methoxy-7-methylquinoxalin-5-yl)benzo[d]thiazol-4-yl)(3-(trifluoromethyl)phenyl)methanol], the IC50 came to 4.6 nM. Next, `COc1cc(C)c2nc(-c3cc(C)cc4nc(OC(F)F)cnc34)sc2c1` [Example 10, 2-(2-(difluoromethoxy)-7-methylquinoxalin-5-yl)-6-methoxy-4-methylbenzo[d]thiazole]: 2.2 nM. With `COc1cnc2c(-c3nc4cc(F)c(O[C@@H](C)[C@@H](C)OC(=O)Nc5ccc(CCO)nc5)cc4s3)cc(Cl)cc2n1` [Example 836, (2R,3S)-3-((2-(7-chloro-2-methoxyquinoxalin-5-yl)-5-fluorobenzo[d]thiazol-6-yl)oxy)butan-2-yl (6-(2-hydroxyethyl)pyridin-3-yl)carbamate], the half-inhibitory concentration (IC50) was 1.2 nM. Next, `COc1cnc2c(-c3nc4c(Cl)c(F)c(OC[C@@H](C)OC(=O)Nc5ccnc(CO)c5)cc4s3)cc(C)cc2n1` [Example 494, (R)-1-((4-chloro-5-fluoro-2-(2-methoxy-7-methylquinoxalin-5-yl)benzo[d]thiazol-6-yl)oxy)propan-2-yl (2-(hydroxymethyl)pyridin-4-yl)carbamate]: 1.8 nM.
